# System: SKBR3 cells
# Test: Phosphomarker expression in untreated vs drug treated FFPE SKBR3 cells (multiplexed QD spectral imaging, IF, immunoblot)
# Format: cell-based
# Conditions: 250 nM, 24 hrs, MTIP, consistent with IF and immunoblot
# Protocol: Breast cancer cell line model SKBR3 and the prostate adenocarcinoma cell line model LNCaP were cultured in McCoy's 5A medium supplemented with 10% FBS. SKBR3 cells were treated with the ATP-competitive pan-AKT kinase inhibitor drug GSK690693 at low nanomolar concentration (250 nM) for 24 hrs for antibody validation studies. After drug treatment, cells were washed using cold 1×PBS, fixed in cold 10% Neutral Buffered Formalin and embedded in paraffin for sectioning and slide preparation.
# Protein samples from SKBR3 cells were prepared by denaturing cell lysate in an equal volume of Laemmli sample buffer (Biorad, Hercules, Calif.) with 0.5 M dithiothreitol at 100° C. for 5 min. Proteins were separated by SDS-PAGE, transferred to polyvinylidene difluoride membranes, blotted with primary antibodies and detected with horseradish peroxidase-conjugated secondary antibodies. Protein bands were detected using ECL (Thermo Scientific).
# Immunostaining for fluorescence spectral imaging was performed on FFPE specimens of SKBR3 cells and tumor tissue on a Benchmark XT autostainer (Ventana Medical Systems, Tucson, Ariz.), to evaluate phosphoprotein staining with the hapten-anti-hapten chemistry in FFPE cell and tumor specimens. All FFPE specimens (cell models, xenograft or tumor tissues) were subjected to automated deparaffinization in EZPREP buffer (VMSI Cat #950-102), and cell conditioning with CC1 buffer (VMSI Cat #950-124) for 90 min prior to antibody incubations. FFPE specimens were incubated with a single or a cocktail of hapten-conjugated primary antibodies (pS6:BF, pAKT 5473:DIG, peIF4G:TS, pPRAS40:NP, pERK 1/2:NCA, pAKT T308:DNP at 5, 15, 20, 20, 30, 12.5 μg/mL respectively) at 37° C. for 32 minutes. Following the primary antibody incubation step, samples were incubated by appropriate combination of secondary anti-hapten antibody QD conjugates (anti-BF:QD525, anti-DIG:QD565, anti-TS:QD585, anti-NP:[…], anti-NCA:QD625, anti-DNP:QD655 at 40, 50, 50, 70, 40, 30 nM concentrations respectively) at 37° C. for 32 minutes. Following automated staining with antibodies, samples were dehydrated in ethanol series, followed by xylene, and mounted using Cytoseal 60 (Thermo Scientific).
# The specificity of the antibodies selected was tested using a series of IHC experiments using FFPE cell and xenograft model systems (FIGS. 14 15 and 16). The anti-phosphomarker hapten conjugated primary and anti-hapten monoclonal secondary functionality was tested using the SKBR3 cell line, a well-established breast cancer model of PI3K pathway activation (Englemen PNAS ref). SKBR3 cells were either untreated or treated with the AKT small molecule inhibitor GSK690693. The two cell populations were prepared as FFPE blocks and stained using the anti-phosphomarker primaries, followed by anti-hapten secondary antibodies conjugated to HRP to permit contrast through DAB. This permitted verification of the hapten-anti-hapten labeling scheme (FIG. 14; the DAB stain pattern was consistent with primary-anti-species secondary staining performed in parallel).
# A multiplexed experiment was then conducted using the combined markers followed by hyperspectral imaging and processing to separate the signal contributions for each marker (FIG. 14b). For additional comparison, SKBR3 cell lysates were subjected to immunoblotting with all six phosphoantibodies (FIG. 14c). […] The similarity of phosphomarker expression changes upon drug treatment detected using MTIP to that observed in the IF and immunoblot staining validate the specificity and functionality of the conjugated antibodies used in the multiplexed assay context.
structure (smiles),measurement,value
CCn1c(-c2nonc2N)nc2c(C#CC(C)(C)O)ncc(OC[C@H]3CCCNC3)c21 [GSK690693],pAKT308 expression change following drug treatment,relative increase in expression
same,pAKT473 expression change following drug treatment,relative increase in expression
same,pERK expression change following drug treatment,reduction in the expression
same,pPRAS40 expression change following drug treatment,reduction in the expression
same,pS6 expression change following drug treatment,reduction in the expression
same,peIF4G expression change following drug treatment,did not show any significant change in the expression

# From patent publication US10664967B2, “Methods, systems, and apparatuses for quantitative analysis of heterogeneous biomarker distribution” (Ventana Medical Systems, Inc., priority 2014, dated 2020)
